Experimental data published in patent US5395947A, “Platinum(II) complex and processes for preparing the same” (Sunkyong Industries, Ltd., priority 1991, dated 1995).

Columns and labels:
[1] = tested on: murine leukemia L1210 cells; experiment: Growth inhibition test on cultured murine leukemia L1210 cells; assay type: cell-based; conditions: 48 hours, 37° C., Trypan blue viability
Procedure: 1. Growth inhibition test on cultured murine leukemia L1210 cells
Murine leukemia L1210 cells(1×10^5) were treated with various concentrations of the compounds prepared in the above examples in RPMI 1640 medium supplemented with 10% fetal calf serum, and cultured in a 5% CO2 humidified incubator at 37° C. for 48 hours. Their viability, estimated by staining with 0.17% Trypan blue, was compared with that of control cells cultured in the identical medium without the compounds.

[2] = Test for water solubility; assay type: physicochemical; conditions: water
Excerpt: 3. Test for water solubility
A standard plot of UV absorbance(220 nm) vs. concentration was made; and employed to determine water-solubility.
The mixture was then passed through a 0.45 micron disposable membrane filter before dilution and UV measurement.

murine leukemia L1210 = experiment: Antitumor activity test on murine leukemia L1210 in vivo; set-up: species or system male BDF1 mice; conditions: days 1, 5, 9
Procedure: 2. Antitumor activity test on murine leukemia L1210 in vivo
Murine leukemia L1210 cells were maintained in the peritoneal cavities of 6-week-old male DBA/2 mice by weekly transfer in accordance with the procedure described in cancer chemotherapy Reports, Part 3, 3(2), 7 (1972). Specifically, 1×10^6 leukemia cells were inoculated into the abdominal cavities of 6-week-old male BDF1 mice weighing 21±3 g on day 0. Each treatment group consisted of seven mice. The test compounds were dissolved or suspended in 0.5% carboxymethyl cellulose(CMC)solution (in water) and were administered intraperitoneally on days 1, 5, and 9 relative to the tumor inoculation.
Thirty mice of 6-week-old male BDF1 weighing 21±3 g were used as the control group, which were injected with 0.5% CMC solution only in the same manner as above.
Anti-tumor activities of the compounds were evaluated in terms of the T/C % values calculated from the mean survival time(T) of the compound-treated group over that(C) of the control group. [formula]

ICR mice = experiment: Acute toxicity test; assay type: in vivo; set-up: Lethality: unit not given here; conditions: for Lethality: 10080 min
Procedure: 7-week-old ICR mice(male: 34±2 g; female: 31±2 g) were fed with solid food and water under the condition of 23±1° C. temperature and 65±5% humidity before the test.
Each treatment group consisted of 6 mice. The test compounds were administered intraperitoneally.
For 7 days after the administration, the appearance and the fate of the tested animals were recorded. The dead animals were subjected to autopsy and their visible pathological changes were observed. Their viscerals were stored in 10% formalin solution.

NC[C@H]1OC2(CCCCC2)O[C@@H]1CN.O=C1C[O][Pt][O]1 [Example 4, (glycolato-O,O'){cyclohexanespiro-2'-[(4'R,5'R)-4',5'-bis(aminomethyl)-1',3'-dioxolane]}-platinum(II)]
IC50 (concentration required for 50% inhibition of growth) [1]: 0.08 µg/mL | Solubility in water [2]: 2.9 mg/mL | T/C (%) (murine leukemia L1210; 3.1 mg/kg i.p.): 102% | T/C (%) (murine leukemia L1210; 6.2 mg/kg i.p.): 146% | T/C (%) (murine leukemia L1210; 12.5 mg/kg i.p.): 233% | T/C (%) (murine leukemia L1210; 25 mg/kg i.p.): 231% | T/C (%) (murine leukemia L1210; 50 mg/kg i.p.): toxic | Number of dead mice for 7 days (ICR mice; female, 25.0 mg/kg i.p.): 0/6 | Number of dead mice, 1st day (ICR mice; female, 25.0 mg/kg i.p.): 0/6 | Number of dead mice for 7 days (ICR mice; female, 32.5 mg/kg i.p.): 0/6 | Number of dead mice, 1st day (ICR mice; female, 32.5 mg/kg i.p.): 0/6 | Number of dead mice for 7 days (ICR mice; female, 42.3 mg/kg i.p.): 0/6 | Number of dead mice, 1st day (ICR mice; female, 42.3 mg/kg i.p.): 0/6 | Number of dead mice for 7 days (ICR mice; female, 55.0 mg/kg i.p.): 2/6 | Number of dead mice, 1st day (ICR mice; female, 55.0 mg/kg i.p.): 0/6 | Number of dead mice, 3rd day (ICR mice; female, 55.0 mg/kg i.p.): 1/6 | Number of dead mice, 4th day (ICR mice; female, 55.0 mg/kg i.p.): 1/5 | Lethality (ICR mice; female, 55.0 mg/kg i.p.): 33.3 | Number of dead mice for 7 days (ICR mice; female, 71.4 mg/kg i.p.): 4/6 | Number of dead mice, 1st day (ICR mice; female, 71.4 mg/kg i.p.): 0/6 | Number of dead mice, 2nd day (ICR mice; female, 71.4 mg/kg i.p.): 2/6 | Number of dead mice, 3rd day (ICR mice; female, 71.4 mg/kg i.p.): 1/4 | Number of dead mice, 4th day (ICR mice; female, 71.4 mg/kg i.p.): 1/3 | Lethality (ICR mice; female, 71.4 mg/kg i.p.): 66.7 | Number of dead mice for 7 days (ICR mice; male, 25.0 mg/kg i.p.): 0/6 | Number of dead mice, 1st day (ICR mice; male, 25.0 mg/kg i.p.): 0/6 | Number of dead mice for 7 days (ICR mice; male, 32.5 mg/kg i.p.): 0/6 | Number of dead mice, 1st day (ICR mice; male, 32.5 mg/kg i.p.): 0/6 | Number of dead mice for 7 days (ICR mice; male, 42.3 mg/kg i.p.): 0/6 | Number of dead mice, 1st day (ICR mice; male, 42.3 mg/kg i.p.): 0/6 | Number of dead mice for 7 days (ICR mice; male, 55.0 mg/kg i.p.): 3/6 | Number of dead mice, 1st day (ICR mice; male, 55.0 mg/kg i.p.): 0/6 | Number of dead mice, 2nd day (ICR mice; male, 55.0 mg/kg i.p.): 2/6 | Number of dead mice, 3rd day (ICR mice; male, 55.0 mg/kg i.p.): 1/4 | Lethality (ICR mice; male, 55.0 mg/kg i.p.): 50.0 | Number of dead mice for 7 days (ICR mice; male, 71.4 mg/kg i.p.): 4/6 | Number of dead mice, 1st day (ICR mice; male, 71.4 mg/kg i.p.): 0/6 | Number of dead mice, 2nd day (ICR mice; male, 71.4 mg/kg i.p.): 3/6 | Number of dead mice, 3rd day (ICR mice; male, 71.4 mg/kg i.p.): 1/3 | Lethality (ICR mice; male, 71.4 mg/kg i.p.): 66.7

CC(C)C1O[C@H](CN)[C@@H](CN)O1.O=C1C[O][Pt][O]1 [Example 7, (glycolato-O,O')[(4R,5R)-4,5-bis(aminomethyl)-2-isopropyl-1,3-dioxolane]platinum(II)]
IC50 (concentration required for 50% inhibition of growth) [1]: 0.06 µg/mL | Solubility in water [2]: > 30 mg/mL | T/C (%) (murine leukemia L1210; 3.1 mg/kg i.p.): 155% | T/C (%) (murine leukemia L1210; 6.2 mg/kg i.p.): 166% | T/C (%) (murine leukemia L1210; 12.5 mg/kg i.p.): 191% | T/C (%) (murine leukemia L1210; 25 mg/kg i.p.): toxic | T/C (%) (murine leukemia L1210; 50 mg/kg i.p.): toxic | Number of dead mice for 7 days (ICR mice; female, 25.0 mg/kg i.p.): 0/6 | Number of dead mice, 1st day (ICR mice; female, 25.0 mg/kg i.p.): 0/6 | Number of dead mice for 7 days (ICR mice; female, 32.5 mg/kg i.p.): 0/6 | Number of dead mice, 1st day (ICR mice; female, 32.5 mg/kg i.p.): 0/6 | Number of dead mice for 7 days (ICR mice; female, 42.3 mg/kg i.p.): 1/6 | Number of dead mice, 1st day (ICR mice; female, 42.3 mg/kg i.p.): 0/6 | Number of dead mice, 3rd day (ICR mice; female, 42.3 mg/kg i.p.): 1/6 | Lethality (ICR mice; female, 42.3 mg/kg i.p.): 16.7 | Number of dead mice for 7 days (ICR mice; female, 55.0 mg/kg i.p.): 2/6 | Number of dead mice, 1st day (ICR mice; female, 55.0 mg/kg i.p.): 0/6 | Number of dead mice, 3rd day (ICR mice; female, 55.0 mg/kg i.p.): 1/6 | Number of dead mice, 4th day (ICR mice; female, 55.0 mg/kg i.p.): 1/5 | Lethality (ICR mice; female, 55.0 mg/kg i.p.): 33.3 | Number of dead mice for 7 days (ICR mice; female, 71.4 mg/kg i.p.): 4/6 | Number of dead mice, 1st day (ICR mice; female, 71.4 mg/kg i.p.): 0/6 | Number of dead mice, 3rd day (ICR mice; female, 71.4 mg/kg i.p.): 3/6 | Number of dead mice, 4th day (ICR mice; female, 71.4 mg/kg i.p.): 1/3 | Lethality (ICR mice; female, 71.4 mg/kg i.p.): 66.7 | Number of dead mice for 7 days (ICR mice; male, 25.0 mg/kg i.p.): 0/6 | Number of dead mice, 1st day (ICR mice; male, 25.0 mg/kg i.p.): 0/6 | Number of dead mice for 7 days (ICR mice; male, 32.5 mg/kg i.p.): 0/6 | Number of dead mice, 1st day (ICR mice; male, 32.5 mg/kg i.p.): 0/6 | Number of dead mice for 7 days (ICR mice; male, 42.3 mg/kg i.p.): 2/6 | Number of dead mice, 1st day (ICR mice; male, 42.3 mg/kg i.p.): 0/6 | Number of dead mice, 3rd day (ICR mice; male, 42.3 mg/kg i.p.): 1/6 | Number of dead mice, 5th day (ICR mice; male, 42.3 mg/kg i.p.): 1/5 | Lethality (ICR mice; male, 42.3 mg/kg i.p.): 33.3 | Number of dead mice for 7 days (ICR mice; male, 55.0 mg/kg i.p.): 2/6 | Number of dead mice, 1st day (ICR mice; male, 55.0 mg/kg i.p.): 0/6 | Number of dead mice, 3rd day (ICR mice; male, 55.0 mg/kg i.p.): 1/6 | Number of dead mice, 4th day (ICR mice; male, 55.0 mg/kg i.p.): 1/5 | Lethality (ICR mice; male, 55.0 mg/kg i.p.): 33.3 | Number of dead mice for 7 days (ICR mice; male, 71.4 mg/kg i.p.): 4/6 | Number of dead mice, 1st day (ICR mice; male, 71.4 mg/kg i.p.): 0/6 | Number of dead mice, 3rd day (ICR mice; male, 71.4 mg/kg i.p.): 2/6 | Number of dead mice, 4th day (ICR mice; male, 71.4 mg/kg i.p.): 2/4 | Lethality (ICR mice; male, 71.4 mg/kg i.p.): 66.7
